US20240090547A1, “SWEETENER COMPOSITIONS COMPRISING MOGROSIDES AND USES THEREOF” (Firmenich Incorporated, priority 2021, published 2024)

Columns and labels:
Type in all cases: in vivo, human
expert panelists = experiment: Expert panelists' comparison of mogrosides with stevia; settings: 'Examples 4 and 5', in words
panel of volunteers [1] = experiment: Sensory testing for apple drink (panel, in-mouth and aftertaste attributes); parameters: key to Sweetness / Delayed Sweetness / Bitterness / Lingering Sweetness / Overall Off-Taste / Licorice Aftertaste / Bitterness Aftertaste / Mouth Coating: 10-point scale; normalized per attribute to average Reb M scores; settings: for Bitterness / Delayed Sweetness / Global Flavor Intensity / Sweetness / Thickness/Body: in-mouth, average normalized score
Experimental: (§1) A panel of volunteers evaluated siamenoside I for in-mouth attributes (sweetness, delayed sweetness, sourness, bitterness, global flavor intensity, thickness/body, and astringence) and aftertaste (AT) attribtues (lingering sweetness, overall off-taste intensity, licorice off-tast, bitterness off-taste, and mouth coating) on a 10-point scale. Two replicate sessions were conducted, with a 20 minute break between sessions. There was a 90 second delay between samples within a session. Panelists evaluated all samples in a first session and evaluated the samples again a second time in a second session. Control samples of Rebaudioside M (Reb M) were evaluated during all sessions as a control. Mogroside V was also evaluated and sensory data for mogroside V is provided.
(§2) Data analysis was performed using 2-way analysis of variance (ANOVA) with interaction using Tukey's HSD test. The data was normalized for each attribute according to average scores for Reb M.
The average normalized in-mouth attributes for each sample of apple drink containing siamenoside I was evaluated below.
The average sweetness for each sample of apple drink containing siamenoside I was evaluated below.

panel of flavorists [2] = experiment: Additional sensory testing for vanilla milk, flavorist panel; settings: 400 ppm mogrosides, 0 to 10 scale, letter in parentheses = Duncan's test group
Experimental: A panel of flavorists at three locations evaluated vanilla milk containing various mogrosides at a concentration of 400 ppm mogrosides for in-mouth attributes (peak sweetness, upfront sweetness, bitterness, and mouthfeel/thickness) and aftertaste attributes (sweet taste linger), on a 0 to 10 scale. The in-mouth attributes were evaluated while holding the sample in the mouth, while the aftertaste attributes were evaluated after expectoration. The data was analyzed using Duncan's new multiple range test and the scores are provided in the data below in parentheses.

panel of flavorists [3] = experiment: Additional sensory testing for lemon-flavored (lemon-lime) beverage, flavorist panel; settings: 600 ppm mogrosides, 0 to 10 scale, letter in parentheses = Duncan's test group
Experimental: A panel of flavorists at three locations evaluated lemon-lime beverage various mogrosides at a concentration of 600 ppm mogrosides for in-mouth attributes (peak sweetness, upfront sweetness, bitterness, and mouthfeel/thickness) and aftertaste attributes (sweet taste linger), on a 0 to 10 scale. The in-mouth attributes were evaluated while holding the sample in the mouth, while the aftertaste attributes were evaluated after expectoration.

panel of volunteers [4] = experiment: Sensory testing for vanilla milk; settings: for Licorice Aftertaste / Lingering Sweetness / Mouth Coating / Overall Off-Taste: aftertaste
Experimental: as §1, §2
A panel of volunteers evaluated vanilla milk for in-mouth attributes and aftertaste attributes according to the methods described in Example 1 above.
The average normalized in-mouth attributes for each sample of vanilla milk was evaluated and the results are provided below.
The average normalized aftertaste attributes for each sample of vanilla milk containing siamenoside I was evaluated and the results are provided below.

panel of volunteers [5] = experiment: Sensory testing for sparkling orange beverage
Experimental: as §1, §2
A panel of volunteers evaluated a sparkling orange beverage containing siamenodie I for in-mouth attributes and aftertaste attributes according to the methods described in Example 1 above.
The average normalized in-mouth attributes for a sample of sparkling orange beverage containing siamenoside I was evaluated and the results are provided below.
The average normalized aftertaste attributes for a sample of sparkling orange beverage containing siamenoside I was evaluated and the results are provided below.

panel of volunteers [6] = experiment: Sensory testing for lemon-lime carbonated soft drink; parameters: key to Sweetness / Delayed Sweetness / Bitterness / Lingering Sweetness / Overall Off-Taste / Licorice Aftertaste / Bitterness Aftertaste: 10-point scale; scores normalized to average Reb M scores
Experimental: as §1, §2
A panel of volunteers evaluated the siamenoside I-containing lemon-lime carbonated soft drink for in-mouth attributes and aftertaste attributes according to the methods described in Example 1 above.
The average normalized in-mouth attributes for a sample of lemon-lime carbonated soft drink having […] was evaluated below.
The average normalized aftertaste attributes for a sample of lemon-lime carbonated soft drink having siamenoside I was evaluated below.

[7] = 250 ppm (mogroside V 250 mg [sic]), aftertaste, 10-point scale
[8] = 250 ppm (mogroside V 250 mg [sic]), 10-point scale
[9] = 500 ppm (mogroside V 500 mg [sic]), aftertaste, 10-point scale
[10] = 500 ppm (mogroside V 500 mg [sic]), 10-point scale
[11] = aftertaste, after expectoration
[12] = 200 ppm (mogroside V 200 mg [sic]), average normalized score, 10-point scale
[13] = 200 ppm (mogroside V 200 mg [sic]), in-mouth, average normalized score, 10-point scale
[14] = 400 ppm (mogroside V 400 mg [sic]), average normalized score, 10-point scale
[15] = 400 ppm (mogroside V 400 mg [sic]), in-mouth, average normalized score, 10-point scale
[16] = at both 200 ppm and 400 ppm, in words
[17] = orange sparkling beverage, in words
[18] = sparkling orange beverage, 250 ppm (mogroside V 250 mg [sic]), aftertaste, average normalized score, 10-point scale
[19] = sparkling orange beverage, 250 ppm (mogroside V 250 mg [sic]), in-mouth, average normalized score, 10-point scale
[20] = 600 ppm (mogroside V 600 mg [sic]), aftertaste, average normalized score, 10-point scale
[21] = 600 ppm (mogroside V 600 mg [sic]), in-mouth, average normalized score, 10-point scale

What does the source list for C[C@H](CC[C@@H](O[C@@H]1O[C@H](CO[C@@H]2O[C@H](CO)[C@@H](O)[C@H](O)[C@H]2O)[C@@H](O)[C@H](O)[C@H]1O[C@@H]1O[C@H](CO)[C@@H](O)[C@H](O)[C@H]1O)C(C)(C)O)[C@H]1CC[C@@]2(C)[C@@H]3CC=C4[C@@H](CC[C@H](O[C@@H]5O[C@H](CO)[C@@H](O)[C@H](O)[C@H]5O)C4(C)C)[C@]3(C)[C@H](O)C[C@]12C [siamenoside I]?
bitter aftertaste compared with stevia (expert panelists): lower bitter aftertaste; licorice aftertaste compared with stevia (expert panelists): lower licorice aftertaste; mouthfeel compared with stevia (expert panelists): better mouthfeel; Bitterness Aftertaste (panel of volunteers [1]; [7]): 1.3; Licorice Aftertaste (panel of volunteers [1]; [7]): 2.2; Lingering Sweetness (panel of volunteers [1]; [7]): 3.2; Overall Off-Taste (panel of volunteers [1]; [7]): 2.5; Bitterness (panel of volunteers [1]; [8]): 1.5; Delayed Sweetness (panel of volunteers [1]; [8]): 2.3; Global Flavor Intensity (panel of volunteers [1]; [8]): 3.5; Sweetness (panel of volunteers [1]; [8]): 4.0; Thickness/Body (panel of volunteers [1]; [8]): 1.2; Licorice Aftertaste (panel of volunteers [1]; [9]): 2.7; Lingering Sweetness (panel of volunteers [1]; [9]): 4.7; Mouth Coating (panel of volunteers [1]; [9]): 2.4; Overall Off-Taste (panel of volunteers [1]; [9]): 3.4; Bitterness (panel of volunteers [1]; [10]): 1.7; Delayed Sweetness (panel of volunteers [1]; [10]): 3.2; Global Flavor Intensity (panel of volunteers [1]; [10]): 4.4; Sweetness (panel of volunteers [1]; [10]): 5.3; Thickness/Body (panel of volunteers [1]; [10]): 1.6; global flavor intensity compared with mogroside V (panel of volunteers [1]; in words): higher global flavor intensity; in-mouth and aftertaste profile compared with Reb M (panel of volunteers [1]; in words): comparable to that of Reb M; overall off-taste compared with mogroside V (panel of volunteers [1]; in words): lower overall off-taste; sweetness compared with mogroside V (panel of volunteers [1]; in words): sweeter; Sweet Linger (panel of flavorists [2]; [11]): 5.875 (a); Bitterness (panel of flavorists [2]; in-mouth): 1.688 (a); Mouthfeel/Thickness (panel of flavorists [2]; in-mouth): 5.000 (ab); Peak Sweetness (panel of flavorists [2]; in-mouth): 7.375 (a)—; Upfront Sweetness (panel of flavorists [2]; in-mouth): 5.938 (ab); Sweet Linger (panel of flavorists [3]; [11]): 4.429 (bc); Bitterness (panel of flavorists [3]; in-mouth): 2.571 (a); Mouthfeel/Thickness (panel of flavorists [3]; in-mouth): 3.429 (ab); Peak Sweetness (panel of flavorists [3]; in-mouth): 6.571 (b)—; Upfront Sweetness (panel of flavorists [3]; in-mouth): 4.286 (b); Licorice Aftertaste (panel of volunteers [4]; [12]): 1.2; Lingering Sweetness (panel of volunteers [4]; [12]): 3.3; Mouth Coating (panel of volunteers [4]; [12]): 3.3; Overall Off-Taste (panel of volunteers [4]; [12]): 1.8; Astringence (panel of volunteers [4]; [13]): 0.7; Delayed Sweetness (panel of volunteers [4]; [13]): 2.2; Fattiness (panel of volunteers [4]; [13]): 3.5; Sourness (panel of volunteers [4]; [13]): 1.1; Sweetness (panel of volunteers [4]; [13]): 5.6; Licorice Aftertaste (panel of volunteers [4]; [14]): 1.7; Lingering Sweetness (panel of volunteers [4]; [14]): 4.8; Mouth Coating (panel of volunteers [4]; [14]): 0.5; Overall Off-Taste (panel of volunteers [4]; [14]): 2.4; Astringence (panel of volunteers [4]; [15]): 0.8; Bitterness (panel of volunteers [4]; [15]): 0.8; Delayed Sweetness (panel of volunteers [4]; [15]): 2.6; Fattiness (panel of volunteers [4]; [15]): 4.3; Global Flavor Intensity (panel of volunteers [4]; [15]): 4.6; Sourness (panel of volunteers [4]; [15]): 0.7; Sweetness (panel of volunteers [4]; [15]): 7.7; lingering sweetness compared with Reb M (panel of volunteers [4]; [16]): increased; sweetness compared with Reb M (panel of volunteers [4]; [16]): increased; bitterness compared with mogroside V (panel of volunteers [4]; in words): lower bitterness; delayed sweetness compared with mogroside V (panel of volunteers [4]; in words): higher; global flavor intensity compared with mogroside V (panel of volunteers [4]; in words): higher global flavor intensity; sweetness compared with mogroside V (panel of volunteers [4]; in words): higher; delayed sweetness compared with Reb M (panel of volunteers [5]; [17]): slightly higher; in mouth and aftertaste profile compared with Reb M (panel of volunteers [5]; [17]): comparable to that of Reb M; sweetness compared with Reb M (panel of volunteers [5]; [17]): slightly higher; sweetness compared with mogroside V (panel of volunteers [5]; [17]): higher sweetness; Licorice Aftertaste (panel of volunteers [5]; [18]): 2.8; Lingering Sweetness (panel of volunteers [5]; [18]): 4.4; Mouth Coating (panel of volunteers [5]; [18]): 2.9; Overall Off-Taste (panel of volunteers [5]; [18]): 3.6; Delayed Sweetness (panel of volunteers [5]; [19]): 3.7; Sweetness (panel of volunteers [5]; [19]): 5.9; Bitterness Aftertaste (panel of volunteers [6]; [20]): 1.3; Licorice Aftertaste (panel of volunteers [6]; [20]): 3.0; Lingering Sweetness (panel of volunteers [6]; [20]): 4.4; Overall Off-Taste (panel of volunteers [6]; [20]): 4.1; Bitterness (panel of volunteers [6]; [21]): 1.6; Delayed Sweetness (panel of volunteers [6]; [21]): 4.1; Global Flavor Intensity (panel of volunteers [6]; [21]): 4.7; Sweetness (panel of volunteers [6]; [21]): 6.0; bitterness compared with Reb M (panel of volunteers [6]; 600 ppm, in words): overall lower bitterness; global flavor intensity compared with Reb M (panel of volunteers [6]; 600 ppm, in words): same; sweetness compared with Reb M (panel of volunteers [6]; 600 ppm, in words): same; bitterness aftertaste compared with mogroside V (panel of volunteers [6]; in words): lower bitterness aftertaste; bitterness compared with mogroside V (panel of volunteers [6]; in words): lower bitterness; global flavor intensity compared with mogroside V (panel of volunteers [6]; in words): higher global flavor intensity; in mouth and aftertaste profile compared with Reb M (panel of volunteers [6]; in words): comparable to that of Reb M; sweetness compared with mogroside V (panel of volunteers [6]; in words): higher sweetness
